# According to patent US20060177448A1, “Inhibiting HER2 shedding with matrix metalloprotease antagonists” (Genentech, Inc., priority 2005, published 2006):
# Tests used:
# [1] = system: breast carcinoma cell lines; conditions: cited from earlier work
# SKBR-3 cells = test: HER2 ECD ELISA of conditioned media (HER2 shedding), SKBR-3 cells; format: cell-based, human
# Experimental: BT 474, MCF-7, and SKBR-3 cells were maintained in high-glucose DMEM:Ham's F12 (50:50) supplemented with 10% heat-inactivated FBS and 2 mM L-Glutamine. […] Cell lines were maintained at 37° C. in a humidified incubator supplied with 5% CO2. BT 474 and SKBR-3 cells were transiently transfected with constructs as described by electroporation using kit V according to the manufacturer's instructions (AMAXA™).
# Serum was diluted 1:50 using assay buffer (PBS/0.5% BSA, 0.05% TWEEN® 20/10 ppm PROCLIN® 300/0.2% BGG/0.25% CHAPS/0.15 M NaCl/5mM EDTA (pH 7.4) followed by additional 1:2 serial dilutions. Shed HER2 was captured using a goat anti-HER2 polyclonal antibody (Genentech) onto NUNC® Maxisorp plates and detected using a biotin-conjugated rabbit anti-HER2 polyclonal antibody (Genentech) followed by a AMDEX™-strepavidin-horseradish peroxidase antibody (Amersham Pharmacia Biotech) following a procedure described previously (Sias et al., J. Immunol. Meth. 109:219-27 (1990)). For cell culture experiments, cells were treated as indicated and conditioned media was collected and diluted in assay buffer serially 1:2. The concentration of shed HER2 in serum or in conditioned media was determined from a four-parameter fit of a standard curve using purified recombinant HER2 ECD protein (Genentech) as a standard.
# The pSIREN shRNA construct(s) or vector alone were transiently transfected into SKBR-3 and BT 474 cells using AMAXA™ kit V following manufacturer's recommendations. After 48 hours, conditioned media was collected and assayed for shed HER2 by HER2 ELISA and the cells were lysed directly on the plate using 2×Sample buffer.
# Fo5 tumors = test: GM6001 injections in FVB mice with Fo5 xenograft tumors (serum HER2 ECD ELISA, p95 HER2 Western blot); format: in vivo, mouse; conditions: 100 mg/kg intraperitoneally daily for 3 days, day four
# Excerpt: The Fo5 and f2: 1282 lines have been previously described (Finkle et al., Clin. Cancer Res. 10: 2499-2511 (2004)). These lines were derived from primary tumors from a MMTV HER2 transgenic mouse and passaged in the mammary fat pad of FVB mice.
# Fo5 tumors were transplanted into FVB mice and allowed to grow to an average size of 400-600 mm^3 prior to initiating the study. GM6001 (3-[N-hydroxycarbomyl]-[2R]-isobutylpropionyl-L-tryptophan methylamide) was obtained from Calbiochem and reconstituted in a slurry of 4% carboxymethylcellulose/0.9% PBS and administered daily by intraperitoneal injection at 100 mg/kg body weight for 3 days. […] Tumors size was measured at day 0 and at day 4. […]
# Serun from mice harboring Fo5 or f2: 1282 xenograft tumors was collected by cardiac puncture and HER2 ECD levels detected using a previously described HER2 ELISA (Finkle et al. Clin. Cancer Res. 10: 2499-2511 (2004)). […] The concentration of shed HER2 in serum or in conditioned media was determined from a four-parameter fit of a standard curve using purified recombinant HER2 ECD protein (Genentech) as a standard.
# Fo5 and f2:1282 tumors were resuspended in lysis buffer with protease inhibitors and homogenized using a POLYTRON TISSUEMIZER™ (PT2 100) on ice. Tumor lysates were cleared of insoluble material by centrifugation and total protein levels were determined using a BCA protein assay kit. […]
compound,measurement,setting,value
CNC(=O)[C@H](Cc1ccccc1)NC(=O)[C@H](CC(C)C)[C@H](CSc1cccs1)C(=O)NO [BB-94],inhibition of HER2 ECD shedding,[1],inhibited HER2 ECD shedding
"CNC(=O)[C@H](Cc1c[nH]c2ccccc12)NC(=O)[C@@H](CC(=O)NO)CC(C)C [GM6001, 3-[N-hydroxycarbomyl]-[2R]-isobutylpropionyl-L-tryptophan methylamide]",inhibition of HER2 shedding (HER2 ECD ELISA),SKBR-3 cells; dose response,dose dependently inhibited HER2 shedding
same,amount of p95 HER2 in tumor lysates compared to control animals,Fo5 tumors,significant reduction
same,serum HER2 ECD levels,Fo5 tumors; versus vehicle,greater reduction
Timp-1: naturally occurring peptides that regulate metalloprotease activity,HER2 ECD levels in conditioned media,SKBR-3 cells; 1 μg/ml,reduced HER2 ECD levels
